Laboratory results: patent US5854280A, “Antifungal sordaridin derivatives” (Glaxo Wellcome S.A., priority 1994, dated 1998)
≈ marks a conversion by molar mass, not a printed value.

Legend:
[1] = British Patent 1,162,027 / Japanese application J6 2040292A; cited from earlier work
[2] = tested on: battery of fungal organisms; conditions: tested against a battery of fungal organisms; cited from earlier work
C. albicans 4711E = assay: protection of mice infected with C. albicans; assay type: in vivo, male mice infected with C. albicans 4711E; conditions: 50 mg/kg po
Text: The in vivo evaluation of compounds of formula (I) can be carried out at a series of dose levels by administration (e.g. subcutaneously, orally, intraperitoneally or intravenously) to mice or rats inoculated with a strain of Candida albicans. Untreated animals die within 3 to 9 days and the dose level at which the test compound provides 50% protection against the lethal effect of the infection is noted.
(§1) The compounds of the invention are essentially non-toxic at therapeutically useful levels. […] The LD50 value for the compound of example 8, in male mice is >1000 mg/kg po.

[3] = acute oral toxicity (LD50); assay type: in vivo; conditions: male mice
Method: as §1

C. neoformans 2867E = assay: in vitro antifungal MIC, two-fold serial dilution; assay type: cell-based, Cryptococcus neoformans
Method: (§2) The in vitro evaluation of the anti-fungal activity of compounds of the invention was performed on liquid or solid medium by the anti-fungal two-fold serial dilution technique of determining the minimum inhibitory concentration (MIC) of anti-fungal agent that inhibited development of growth after 24 to 48 hours of incubation at 37° C. In practice, a series of agar plates or broth microdilution panels containing two-fold dilutions of anti-fungal agent tested were inoculated with a standard culture of a clinically relevant pathogen, for example, Candida albicans. The agar plates or broth microdulution panels were then examined for the presence or absence of growth of the fungus and the appropriate MIC values were noted.
(§3) Compounds of formula (I) have been tested for anti fungal activity in a standard in vitro screen and the minimum inhibiting concentration (MIC; μg/ml) determined for each compound against a variety of clinically relevant pathogens.

C. tropicalis 2808E = assay: in vitro antifungal MIC, two-fold serial dilution; assay type: cell-based, Candida tropicalis
Method: as §2, §3

[4] = tested on: C. psuedotropicalis 2371E; assay: in vitro antifungal MIC, two-fold serial dilution; assay type: cell-based, Candida pseudotropicalis
Method: as §2, §3

C. aibicans 2402E = assay: in vitro antifungal MIC, two-fold serial dilution; assay type: cell-based, Candida albicans
Method: as §2, §3

C. albicans 2005E = assay: in vitro antifungal MIC, two-fold serial dilution; assay type: cell-based, Candida albicans
Method: as §2, §3

C. albicans 4711 = assay: in vitro antifungal MIC, two-fold serial dilution; assay type: cell-based, Candida albicans
Method: as §2, §3

C. albicans 1208E = assay: in vitro antifungal MIC, two-fold serial dilution; assay type: cell-based, Candida albicans
Method: as §2, §3

C. glabrata 2375E = assay: in vitro antifungal MIC, two-fold serial dilution; assay type: cell-based, Candida glabrata
Method: as §2, §3

C. glabrata 2376E = assay: in vitro antifungal MIC, two-fold serial dilution; assay type: cell-based, Candida glabrata
Method: as §2, §3

Row | SMILES | reported activity [1] | antifungal activity [2] | spectrum of action [2] | activity in protecting male mice infected with C. albicans 4711E (C. albicans 4711E) | LD50 [3] [mg/kg] | MIC (minimum inhibiting concentration) (C. neoformans 2867E) [µg/mL] | MIC (minimum inhibiting concentration) (C. tropicalis 2808E) [µg/mL] | MIC (minimum inhibiting concentration) [4] [ng/mL] | MIC (minimum inhibiting concentration) (C. aibicans 2402E) [µg/mL] | MIC (minimum inhibiting concentration) (C. albicans 2005E) [ng/mL] | MIC (minimum inhibiting concentration) (C. albicans 4711) [µg/mL] | MIC (minimum inhibiting concentration) (C. albicans 1208E) [µg/mL] | MIC (minimum inhibiting concentration) (C. glabrata 2375E) [µg/mL] | MIC (minimum inhibiting concentration) (C. glabrata 2376E) [µg/mL]
1 | C/C=C/C=C\C(=O)O[C@H]1[C@H](O)[C@H](OCC23C[C@@H]4[C@H](C)CC[C@H]4C4(C=O)CC2C=C(C(C)C)C34C(=O)O)O[C@H](C)[C@H]1OC (some centres unmarked) [zofimarin] | antifungal activity | only moderately active | limited spectra of action | – | – | – | – | – | – | – | – | – | – | –
2 | CO[C@H]1[C@@H](O)[C@H](O)[C@H](OC[C@@]23C[C@@H]4[C@H](C)CC[C@H]4[C@@]4(C=O)CC2C=C(C(C)C)[C@@]34C(=O)O)O[C@@H]1C [sordarin] | fungistatic activity | only moderately active | limited spectra of action | – | – | – | – | – | – | – | – | – | – | –
3 | CC(C)C1=CC2CC3(C=O)C4CCC(C)C4CC2(COC2CC4OC(C)(C)OC4C(C)O2)C13C(=O)[O-].[Na+] [Example 8, [1R-(1α,3aβ,4β,4aβ,7β,7aα,8aβ)]8a-[(2,6-Dideoxy-3,4-O-isopropylidene-β-D-allopyranosyloxy)methyl]-4-formyl-4,4a,5,6,7,7a,8,8a-octahydro-7-methyl-3-(1-methylethyl)-1,4-methano-s-indacene-3a(1H)-carboxylic acid, sodium salt] | – | – | – | active in protecting male mice | > 1000 | – | – | – | – | – | – | – | – | –
4 | CC(C)C1=CC2CC3(C=O)C4CCC(C)C4CC2(COC2CC4OCOC4C(C)O2)C13C(=O)[O-].[Na+] (centres unmarked) [Example 13] | – | – | – | – | – | 0.500 | 0.120 | 8 | 0.015 | 8 | 0.015 | 0.015 | 8.00 | 8.00
5 | COC1C(C)OC(OCC23CC4C(C)CCC4C4(C=O)CC2C=C(C(C)C)C43C(=O)O)C2SC12 [Example 51, [1R-(1α,3aβ,4β,4aβ,7β,7aα,8aβ)]8a-[(2,3-Epithio-4-O-methyl-2,3,6-trideoxy-β-D-mannopyranosyloxy)methyl]-4-formyl-4,4a,5,6,7,7a,8,8a-octahydro-7-methyl-3-(1-methylethyl)-1,4-methano-s-indacene-3a(1H)-carboxylic acid] | – | – | – | – | – | ≤ 125 | 0.500 (≈ 1.02 µM) | 8 (≈ 0.0163 µM) | 0.120 (≈ 0.245 µM) | 30 (≈ 0.0611 µM) | 0.120 (≈ 0.245 µM) | 0.120 (≈ 0.245 µM) | 16.00 (≈ 32.6 µM) | 16.00 (≈ 32.6 µM)
6 | CCCOC1C(C)OC(OCC23CC4C(C)CCC4C4(C=O)CC2C=C(C(C)C)C43C(=O)O)C2OC12 [Example 52, [1R-(1α,3aβ,4β,4aβ,7β,7aα,8aβ)]8a-[(2,3-Anhydro-6-deoxy-4-O-propyl-β-D-mannopyranosyloxy)methyl]-4-formyl-4,4a,5,6,7,7a,8,8a-octahydro-7-methyl-3-(1-methylethyl)-1,4-methano-s-indacene-3a(1H)-carboxylic acid] | – | – | – | – | – | 1.00 (≈ 1.99 µM) | 0.030 (≈ 0.0597 µM) | 1 (≈ 0.00199 µM) | 0.008 (≈ 0.0159 µM) | 1 (≈ 0.00199 µM) | 0.004 (≈ 0.00796 µM) | 0.004 (≈ 0.00796 µM) | 8.00 (≈ 15.9 µM) | 8.00 (≈ 15.9 µM)
